Measured values: US20220081415A1, “Amino Acid Derivatives for the Treatment of Inflammatory Diseases” (The Roskamp Institute, priority 2019, published 2022)
Structures can show the parent of a compound that is named as a salt.

Tested on: NF-kB activation induced by TNFα
Test: TNFα Luciferase assay: inhibition of NF-kB activation induced by TNFα in HEK293/NF-kB luciferase cells
Format: cell-based
Settings: 25 ng/ml of TNF-α for four hours, quadruplicate, read-out: IC50, concentration at which NF-kB activation was reduced by 50%
Method: Determination of Inhibition of NF-kB Activation Induced by TNFα . . . In Vitro Assay
The ability of a compound disclosed herein to inhibit NFkB activation induced by TNFα was determined using the TNFα Luciferase assay. The HEK293/NF-kB luciferase cell line was obtained by cotransfection of pNFkB-luc vector with pHyg (Panomics, CA, USA) followed by hygromycin selection. HEK293/NFkB Luciferase cells were grown in DMEM medium supplemented with 10% fetal bovine serum, 100 U/ml of penicillin, 100 ng/ml of streptomycin/Fungizone, and 100 μg/ml of hygromycin B as the selecting agent. HEK293 NFkB Luciferase cells were grown in T75 flasks (Nunc™ Cell Culture Treated EasYFlasks™) in a cell culture incubator at 37° C. and 5% CO2.
Confluent T75 cell culture flasks (approximately 8-10 million of cells per flask) were washed with 10 ml of sterile PBS (without calcium and magnesium) under a biosafety cabinet. After aspiration of the PBS with a sterile glass pipette, the layer of cells (for each T75 flask) was covered with 1 ml of TrypLE™ Express without phenol red (Gibco) at room temperature. After one minute of incubation, HEK293 were mechanically resuspended in the TrypLE by tapping the side of the flask. The cells were then resuspended with 10 ml of pre-warmed complete culture medium and transferred to a conical tube. Cells were centrifuged for 5 minutes at 4000 rpm (1000 g) at room temperature. The cellular pellet was resuspended with 24 ml of pre-warmed cell culture media and […] of cell suspension (approximately 80,000 cells per well) was plated per well in 96-well cell culture plates (Costar #3599, Corning, N.Y., USA) using a multichannel pipette and reversed pipetting to prevent air bubble formation. After plating, the cells were maintained overnight in the cell culture incubator before being treated. For each 96 well cell culture plate, 8 wells were used as “control wells” (only culture medium added) and to 8 wells only TNFα was added. The NF-kB Luciferase reporter cell line was challenged with 25 ng/ml of TNF-α for four hours in the presence and absence (control conditions) of a dose range of the different compounds to be tested. For each compound, a dose range of concentrations was tested in quadruplicate and used to determine an IC50.
Luciferase activity was monitored using the Luc-Screen® Extended-Glow Luciferase Reporter Gene Assay System by chemoluminescence according to the instruction of the manufacturer (Invitrogen) and a BioTek Synergy HT plate reader (BioTek Instruments, VT, USA).

Compound	IC50 [nM]
mixture of 2-((S)-1-oxo-1-((R)-6-(pyridin-3-yl)-5,6-dihydropyridin-1(2H)-yl)butan-2-yl)isoindoline-1,3-dione and 2-((R)-1-oxo-1-((S)-6-(pyridin-3-yl)-5,6-dihydropyridin-1(2H)-yl)butan-2-yl)isoindoline-1,3-dione [Compound 6]	750000

Same assay, conditions: Homo sapiens, 4 h, 25 ng/ml of TNF-α for four hours, quadruplicate, read-out: IC50, concentration at which NF-kB activation was reduced by 50%

Compound	IC50 [nM]
CCCCn1cccc1C(=O)N[C@@H](Cc1ccccc1)C(=O)N1CC=CCC1c1cccnc1 (stereo partly drawn) [Compound 61, 1-butyl-N-((2S)-1-oxo-3-phenyl-1-(6-(pyridin-3-yl)-5,6-dihydropyridin-1(2H)-yl)propan-2-yl)-1H-pyrrole-2-carboxamide]	708
O=C(N[C@@H](Cc1ccccc1)C(=O)N1CC=CCC1c1cccnc1)c1cccnc1 (stereo partly drawn) [Compound 51, N-((2S)-1-oxo-3-phenyl-1-(6-(pyridin-3-yl)-5,6-dihydropyridin-1(2H)-yl)propan-2-yl)nicotinamide]	114
COc1ccc(Cl)c(C(=O)N[C@H](Cc2ccccc2)C(=O)N2CC=CCC2c2cccnc2)c1 (stereo partly drawn) [Compound 27, 2-chloro-5-methoxy-N-((2R)-1-oxo-3-phenyl-1-(6-(pyridin-3-yl)-5,6-dihydropyridin-1(2H)-yl)propan-2-yl)benzamide]	4000
O=C(C(Cc1ccccc1)N1C(=O)c2ccccc2C1=O)N1CC=CCC1c1cccnc1 (stereo not shown) [Compound 7, 2-(1-oxo-3-phenyl-1-(6-(pyridin-3-yl)-5,6-dihydropyridin-1(2H)-yl)propan-2-yl)isoindoline-1,3-dione]	225000
CC[C@@H](C)C(=O)Nc1cccc(C(=O)N[C@@H](Cc2ccccc2)C(=O)N2CC=CCC2c2cccnc2)c1 (stereo partly drawn) [Compound 58, 3-((R)-2-methylbutanamido)-N-((2S)-1-oxo-3-phenyl-1-(6-(pyridin-3-yl)-5,6-dihydropyridin-1(2H)-yl)propan-2-yl)benzamide]	185
O=C(N[C@@H](Cc1ccccc1)C(=O)N1CC=CCC1c1cccnc1)c1ccc[nH]1 (stereo partly drawn) [Compound 56, N-((2S)-1-oxo-3-phenyl-1-(6-(pyridin-3-yl)-5,6-dihydropyridin-1(2H)-yl)propan-2-yl)-1H-pyrrole-2-carboxamide]	968
COc1ccc(C(=O)NC(Cc2ccccc2)C(=O)N2CC=CCC2c2cccnc2)cc1OC (stereo not shown) [Compound 21, 3,4-dimethoxy-N-(1-oxo-3-phenyl-1-(6-(pyridin-3-yl)-5,6-dihydropyridin-1(2H)-yl)propan-2-yl)benzamide]	4500
C[C@@H](C(=O)N1CC=CC[C@H]1c1cccnc1)N1C(=O)c2ccccc2C1=O [Compound 2, 2-((S)-1-oxo-1-((S)-6-(pyridin-3-yl)-5,6-dihydropyridin-1(2H)-yl)propan-2-yl)isoindoline-1,3-dione]	425000
CCCC(=O)Nc1cccc(C(=O)NC(C)C(=O)N2CC=CCC2c2cnc3ccccc3c2)c1 (stereo not shown) [Compound 68, 3-butyramido-N-(1-oxo-1-(2-(quinolin-3-yl)-3,6-dihydropyridin-1(2H)-yl)propan-2-yl)benzamide]	850
CCCCNc1cccc(C(=O)N[C@@H](Cc2ccccc2)C(=O)N2CC=CCC2c2cccnc2)c1 (stereo partly drawn) [Compound 60, 3-(butylamino)-N-((2S)-1-oxo-3-phenyl-1-(6-(pyridin-3-yl)-5,6-dihydropyridin-1(2H)-yl)propan-2-yl)benzamide]	216
CC(C)[C@@H](C(=O)N1CC=CC[C@H]1c1cccnc1)N1C(=O)c2ccccc2C1=O (single isomer, unassigned) [Compound 3]	750000
O=C(CCCC[C@@H]1SC[C@@H]2NC(=O)N[C@@H]21)Nc1cccc(C(=O)N[C@@H](Cc2ccccc2)C(=O)N2CC=CCC2c2cccnc2)c1 (stereo partly drawn) [Compound 41, 3-{5-[(3aS,4S,6aR)-2-oxo-hexahydro-1H-thieno[3,4-d]imidazol-4-yl]pentanamido}-N-[(2S)-1-oxo-3-phenyl-1-{1,2,3,6-tetrahydro-[2,3′-bipyridin]-1-yl}propan-2-yl]benzamide]	250
C[C@H](C(=O)N1CC=CCC1c1cccnc1)N1C(=O)c2ccccc2C1=O (stereo partly drawn) [Compound 17, 2-((2R)-1-oxo-1-(6-(pyridin-3-yl)-5,6-dihydropyridin-1(2H)-yl)propan-2-yl)isoindoline-1,3-dione]	140000
COc1ccc(C)c(C(=O)N[C@H](Cc2ccccc2)C(=O)N2CC=CCC2c2cccnc2)c1 (stereo partly drawn) [Compound 29, 5-methoxy-2-methyl-N-((2R)-1-oxo-3-phenyl-1-(6-(pyridin-3-yl)-5,6-dihydropyridin-1(2H)-yl)propan-2-yl)benzamide]	8000
COc1cc(F)cc(C(=O)NC(Cc2ccccc2)C(=O)N2CC=CCC2c2cccnc2)c1 (stereo not shown) [Compound 24, 3-fluoro-5-methoxy-N-(1-oxo-3-phenyl-1-(6-(pyridin-3-yl)-5,6-dihydropyridin-1(2H)-yl)propan-2-yl)benzamide]	4000
NCCCC(=O)Nc1cccc(C(=O)N[C@@H](Cc2ccccc2)C(=O)N2CC=CCC2c2cccnc2)c1 (stereo partly drawn) [Compound 55, 3-(4-aminobutanamido)-N-((2S)-1-oxo-3-phenyl-1-(6-(pyridin-3-yl)-5,6-dihydropyridin-1(2H)-yl)propan-2-yl)benzamide hydrochloride]	170
O=C(N[C@@H](Cc1ccccc1)C(=O)N1CC=CCC1c1cccnc1)c1ccc2ccccc2n1 (stereo partly drawn) [Compound 49, N-((2S)-1-oxo-3-phenyl-1-(6-(pyridin-3-yl)-5,6-dihydropyridin-1(2H)-yl)propan-2-yl)quinoline-2-carboxamide]	174
O=C(NC(Cc1ccccc1)C(=O)N1CC=CCC1c1cccnc1)c1cccc(F)c1 (stereo not shown) [Compound 19, 3-fluoro-N-(1-oxo-3-phenyl-1-(6-(pyridin-3-yl)-5,6-dihydropyridin-1(2H)-yl)propan-2-yl)benzamide]	5400
CC(C)CC(=O)Nc1cccc(C(=O)N[C@@H](Cc2ccccc2)C(=O)N2CC=CCC2c2cccnc2)c1 (stereo partly drawn) [Compound 42, 3-(3-methylbutanamido)-N-((2S)-1-oxo-3-phenyl-1-(6-(pyridin-3-yl)-5,6-dihydropyridin-1(2H)-yl)propan-2-yl)benzamide]	86.9
CCOc1cc(C(=O)N[C@H](Cc2ccccc2)C(=O)N2CC=CCC2c2cccnc2)ccc1OC (stereo partly drawn) [Compound 26, 3-ethoxy-4-methoxy-N-((2R)-1-oxo-3-phenyl-1-(6-(pyridin-3-yl)-5,6-dihydropyridin-1(2H)-yl)propan-2-yl)benzamide]	2800
CCCC(=O)Nc1cccc(C(=O)N[C@@H](CC2CCCCC2)C(=O)N2CC=CCC2c2cccnc2)c1 (stereo partly drawn) [Compound 66, 3-butyramido-N-((2S)-3-cyclohexyl-1-oxo-1-(6-(pyridin-3-yl)-5,6-dihydropyridin-1(2H)-yl)propan-2-yl)benzamide]	346
O=C(N[C@@H](Cc1ccccc1)C(=O)N1CC=CCC1c1cccnc1)c1cccc(NC(=O)C2CCC2)c1 (stereo partly drawn) [Compound 45, 3-(cyclobutanecarboxamido)-N-((2S)-1-oxo-3-phenyl-1-(6-(pyridin-3-yl)-5,6-dihydropyridin-1(2H)-yl)propan-2-yl)benzamide]	75.4
NCCC(=O)Nc1cccc(C(=O)N[C@@H](Cc2ccccc2)C(=O)N2CC=CCC2c2cccnc2)c1 (stereo partly drawn) [Compound 54, 3-(3-aminopropanamido)-N-((2S)-1-oxo-3-phenyl-1-(6-(pyridin-3-yl)-5,6-dihydropyridin-1(2H)-yl)propan-2-yl)benzamide hydrochloride]	186
O=C(NC(Cc1ccccc1)C(=O)N1CC=CCC1c1cccnc1)c1cccc([N+](=O)[O-])c1 (stereo not shown) [Compound 15, 3-nitro-N-(1-oxo-3-phenyl-1-(6-(pyridin-3-yl)-5,6-dihydropyridin-1(2H)-yl)propan-2-yl)benzamide]	4300
CCCC(=O)Nc1cccc(C(=O)NC(Cc2ccccc2)C(=O)N2CC=CCC2c2cccnc2)c1 (stereo not shown) [Compound 37, 3-butyramido-N-(1-oxo-3-phenyl-1-(6-(pyridin-3-yl)-5,6-dihydropyridin-1(2H)-yl)propan-2-yl)benzamide]	125
C[C@H](NC(=O)c1ccc(Cl)cc1)C(=O)N1CC=CCC1c1cccnc1 (stereo partly drawn) [Compound 14, 4-chloro-N-((2S)-1-oxo-1-(6-(pyridin-3-yl)-5,6-dihydropyridin-1(2H)-yl)propan-2-yl)benzamide]	170000
COc1cc(C(=O)N[C@H](Cc2ccccc2)C(=O)N2CC=CCC2c2cccnc2)ccc1F (stereo partly drawn) [Compound 31, 4-fluoro-3-methoxy-N-((2R)-1-oxo-3-phenyl-1-(6-(pyridin-3-yl)-5,6-dihydropyridin-1(2H)-yl)propan-2-yl)benzamide]	1700
